Measurements published in patent publication US9062074B2, “(9E)-15-(2-pyrrolidin-1-yl-ethoxy)-7,12,25-trioxa-19,21,24-triaza-tetracyclo[18.3.1.1(2.5).1(14,18)]hexacosa-1(24),2,4,9,14,16,18(26),20,22-nonaene citrate salt” (CTI BioPharma Corp., priority 2009, dated 2015).

Assay: Gravimetric Vapour Sorption (GVS)
Assay type: physicochemical
Method: Sorption isotherms were obtained using a SMS DVS Intrinsic moisture sorption analyser, controlled by SMS Analysis Suite software. The sample temperature was maintained at 25° C. by the instrument controls. The humidity was controlled by mixing streams of dry and wet nitrogen, with a total flow rate of 200 ml.min^−1. The relative humidity was measured by a calibrated Rotronic probe (dynamic range of 1.0-100% RH), located near the sample. The weight change, (mass relaxation) of the sample as a function of % RH was constantly monitored by the microbalance (accuracy ±0.005 mg). Typically 5-20 mg of sample was placed in a tared mesh stainless steel basket under ambient conditions. The sample was loaded and unloaded at 40% RH and 25° C. (typical room conditions). A moisture sorption isotherm was performed as outlined below (2 scans giving 1 complete cycle). The standard isotherm was performed at 25° C. at 10% RH intervals over a 0.5-90% RH range.
The hygroscopicity of the citrate was investigated by carrying out a gravimetric vapour sorption experiment on Batch 4. A sample of approximately 20 mg was held at 25° C. whilst the humidity of its environment was changed through two complete cycles. […] The sample takes longer to reach equilibrium in the early stages of the experiment. This may be due to displacement of residual solvent.

Question: What does the source list for `C1=C2COC/C=C/COCc3cc(ccc3OCCN3CCCC3)Nc3nccc(n3)C(=C1)O2` [Batch 4]?
Answer: Gravimetric Vapour Sorption Max weight change: < 1%; Sorp Mass Change (Cycle 1 adsorption, Target RH 40.0%, 25° C.): −0.1186%; Sorp Mass Change (Cycle 1 adsorption, Target RH 50.0%, 25° C.): −0.0817%; Sorp Mass Change (Cycle 1 adsorption, Target RH 60.0%, 25° C.): 0.0329%; Sorp Mass Change (Cycle 1 adsorption, Target RH 70.0%, 25° C.): 0.1086%; Sorp Mass Change (Cycle 1 adsorption, Target RH 80.0%, 25° C.): 0.2342%; Sorp Mass Change (Cycle 1 adsorption, Target RH 90.0%, 25° C.): 0.5631%; Sorp Mass Change (Cycle 1 desorption, Target RH 0.0%, 25° C.): −0.2816%; Sorp Mass Change (Cycle 1 desorption, Target RH 10.0%, 25° C.): −0.2093%; Sorp Mass Change (Cycle 1 desorption, Target RH 20.0%, 25° C.): −0.1545%; Sorp Mass Change (Cycle 1 desorption, Target RH 30.0%, 25° C.): −0.1076%; Sorp Mass Change (Cycle 1 desorption, Target RH 40.0%, 25° C.): −0.0548%; Sorp Mass Change (Cycle 1 desorption, Target RH 50.0%, 25° C.): 0.0100%; Sorp Mass Change (Cycle 1 desorption, Target RH 60.0%, 25° C.): 0.0743%; Sorp Mass Change (Cycle 1 desorption, Target RH 70.0%, 25° C.): 0.1610%; Sorp Mass Change (Cycle 1 desorption, Target RH 80.0%, 25° C.): 0.2905%; Sorp Mass Change (Cycle 1 desorption, Target RH 90.0%, 25° C.): 0.5631%; Sorp Mass Change (Cycle 1 readsorption, Target RH 0.0%, 25° C.): −0.2816%; Sorp Mass Change (Cycle 1 readsorption, Target RH 10.0%, 25° C.): −0.2138%; Sorp Mass Change (Cycle 1 readsorption, Target RH 20.0%, 25° C.): −0.1620%; Sorp Mass Change (Cycle 1 readsorption, Target RH 30.0%, 25° C.): −0.1146%; Sorp Mass Change (Cycle 1 readsorption, Target RH 40.0%, 25° C.): −0.0643%; Sorp Mass Change (Cycle 2 desorption (first segment, RH 40 to 90), Target RH 40.0%, 25° C.): −0.0643%; Sorp Mass Change (Cycle 2 desorption (first segment, RH 40 to 90), Target RH 50.0%, 25° C.): −0.0100%; Sorp Mass Change (Cycle 2 desorption (first segment, RH 40 to 90), Target RH 60.0%, 25° C.): 0.0513%; Sorp Mass Change (Cycle 2 desorption (first segment, RH 40 to 90), Target RH 70.0%, 25° C.): 0.1281%; Sorp Mass Change (Cycle 2 desorption (first segment, RH 40 to 90), Target RH 80.0%, 25° C.): 0.2567%; Sorp Mass Change (Cycle 2 desorption (first segment, RH 40 to 90), Target RH 90.0%, 25° C.): 0.5397%; Sorp Mass Change (Cycle 2 desorption (second segment, RH 90 to 0), Target RH 0.0%, 25° C.): −0.2836%; Sorp Mass Change (Cycle 2 desorption (second segment, RH 90 to 0), Target RH 10.0%, 25° C.): −0.2093%; Sorp Mass Change (Cycle 2 desorption (second segment, RH 90 to 0), Target RH 20.0%, 25° C.): −0.1565%; Sorp Mass Change (Cycle 2 desorption (second segment, RH 90 to 0), Target RH 30.0%, 25° C.): −0.1032%; Sorp Mass Change (Cycle 2 desorption (second segment, RH 90 to 0), Target RH 40.0%, 25° C.): −0.0528%; Sorp Mass Change (Cycle 2 desorption (second segment, RH 90 to 0), Target RH 50.0%, 25° C.): 0.0045%; Sorp Mass Change (Cycle 2 desorption (second segment, RH 90 to 0), Target RH 60.0%, 25° C.): 0.0738%; Sorp Mass Change (Cycle 2 desorption (second segment, RH 90 to 0), Target RH 70.0%, 25° C.): 0.1535%; Sorp Mass Change (Cycle 2 desorption (second segment, RH 90 to 0), Target RH 80.0%, 25° C.): 0.2771%; Sorp Mass Change (Cycle 2 desorption (second segment, RH 90 to 0), Target RH 90.0%, 25° C.): 0.5397%; Sorp Mass Change (Cycle 2 readsorption, Target RH 0.0%, 25° C.): −0.2863%; Sorp Mass Change (Cycle 2 readsorption, Target RH 10.0%, 25° C.): −0.2168%; Sorp Mass Change (Cycle 2 readsorption, Target RH 20.0%, 25° C.): −0.1630%; Sorp Mass Change (Cycle 2 readsorption, Target RH 30.0%, 25° C.): −0.1116%; Sorp Mass Change (Cycle 2 readsorption, Target RH 40.0%, 25° C.): −0.0653%; water taken up (isotherm plot) (between 40% RH and 90% RH, 25° C.): < 0.6%; phase change after GVS experiment (XRPD) (sample retrieved at end of GVS): no overall phase change
